Results published in patent US20250353873A1, “COMPOUNDS AND METHODS FOR MODULATING APOE EXPRESSION” (Ionis Pharmaceuticals, Inc., priority 2024, published 2025).
pIC50: −log10 of the molar value. Strand notation (5' to 3'): a small letter for the sugar, then the base; units joined by * are phosphorothioate-linked, units joined directly phosphodiester-linked; [ ] holds rarer units or linkages, { } end groups; capitals alone tell only the bases. [ms] = mesyl phosphoramidate linkage; e = 2'-O-(2-methoxyethyl) (MOE); k = constrained ethyl (cEt); [5mC] = 5-methylcytosine; d = 2'-deoxy (DNA)

How the values were obtained:
human APOE RNA [1] = test: Dose-dependent inhibition of human APOE RNA in HepG2 cells, electroporation, 50,000 cells per well, RT-PCR normalized to GAPDH (Example 4, Tables 8-10); format: cell-based; conditions: HepG2 cells, electroporation, Table 8; for APOE RNA (% UTC) 5 nM / APOE RNA (% UTC) 13 nM / APOE RNA (% UTC) 33 nM / APOE RNA (% UTC) 82 nM / APOE RNA (% UTC) 205 nM / APOE RNA (% UTC) 512 nM / pIC50: 24-hour treatment; for APOE RNA (% UTC) 1,280 nM: 24-hour treatment, 1,280 nM; for APOE RNA (% UTC) 3,200 nM: 24-hour treatment, 3,200 nM; for APOE RNA (% UTC) 8,000 nM: 24-hour treatment, 8,000 nM; for APOE RNA (% UTC) 20,000 nM: 24-hour treatment, 20,000 nM; for pIC50: reduction of human APOE RNA
In short: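 HepG2 cells, 50,000 per well, electroporated with modified oligonucleotide at various concentrations. APOE RNA quantified by RT-PCR with human primer probe set RTS3073, normalized to GAPDH. Values are percent APOE RNA relative to untreated control cells.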

human APOE RNA [2] = test: Activity in APOE C57BL/6NTac-Apoeem7250 knock-in mice, single ICV bolus, 4 weeks (Example 10); format: in vivo; conditions: single ICV bolus 300 μg, 4 weeks post treatment, normalized to mouse Ppia
In short: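 Knock-in mice (2–4 per group) received one 300 μg ICV bolus of oligonucleotide or PBS. After four weeks, human APOE RNA in cortex and spinal cord measured by RT-qPCR (primer probe set RTS3073), normalized to mouse Ppia, expressed as % of PBS controls.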

human APOE RNA [3] = test: Activity in APOE C57BL/6NTac-Apoeem7250 knock-in mice, single ICV bolus, 8 weeks (Example 11); format: in vivo; conditions: single ICV bolus 300 μg, 8 weeks post treatment, normalized to mouse Ppia
In short: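 Human APOE knock-in C57BL/6NTac mice given one ICV bolus of 300 μg oligonucleotide; PBS-dosed group as control. At 8 weeks, cortex and spinal cord RNA measured by qRT-PCR (human probe RTS3073), normalized to mouse Ppia, expressed as % of PBS control.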

human APOE RNA [4] = test: Activity in APOE C57BL/6NTac-Apoeem7250 knock-in mice, single ICV bolus, 16 weeks (Example 12); format: in vivo; conditions: single ICV bolus 300 μg, 16 weeks post treatment, normalized to mouse Ppia
In short: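 Knock-in mice (3-4 per group) received one ICV bolus of 300 μg oligonucleotide, PBS as control. After 16 weeks, human APOE RNA in cortex and spinal cord measured by RT-qPCR, normalized to mouse Ppia, and reported as % of PBS control.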

human APOE RNA [5] = test: Activity in APOE C57BL/6NTac-Apoeem7250 knock-in mice, single ICV bolus, 20 weeks (Example 13); format: in vivo; conditions: single ICV bolus 300 μg, 20 weeks post treatment, normalized to mouse Ppia
In short: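 Knock-in mice (n=4) given a single ICV bolus of 300 μg oligonucleotide, PBS as control. After 20 weeks, human APOE RNA in cortex and spinal cord measured by RT-qPCR, normalized to mouse Ppia, expressed as % of PBS-treated animals.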

| Substance | APOE RNA (% UTC) 5 nM (human APOE RNA [1]) | APOE RNA (% UTC) 13 nM (human APOE RNA [1]) | APOE RNA (% UTC) 33 nM (human APOE RNA [1]) | APOE RNA (% UTC) 82 nM (human APOE RNA [1]) | APOE RNA (% UTC) 205 nM (human APOE RNA [1]) | APOE RNA (% UTC) 512 nM (human APOE RNA [1]) | APOE RNA (% UTC) 1,280 nM (human APOE RNA [1]) | APOE RNA (% UTC) 3,200 nM (human APOE RNA [1]) | APOE RNA (% UTC) 8,000 nM (human APOE RNA [1]) | APOE RNA (% UTC) 20,000 nM (human APOE RNA [1]) | pIC50 (human APOE RNA [1]) | APOE RNA (% control) Cortex (human APOE RNA [2]) | APOE RNA (% control) Spinal Cord (human APOE RNA [2]) | APOE RNA (% control) Cortex (human APOE RNA [3]) | APOE RNA (% control) Spinal Cord (human APOE RNA [3]) | APOE RNA (% control) Cortex (human APOE RNA [4]) | APOE RNA (% control) Spinal Cord (human APOE RNA [4]) | APOE RNA (% control) Cortex (human APOE RNA [5]) | APOE RNA (% control) Spinal Cord (human APOE RNA [5]) |
| --- | --- | --- | --- | --- | --- | --- | --- | --- | --- | --- | --- | --- | --- | --- | --- | --- | --- | --- | --- |
| 1778123: modified oligonucleotide complementary to human APOE RNA (eA*e[5mC]eTeTeG*eG*dT*dG[ms]dA[ms]dA*dT*d[5mC]*dT*dT*dT*dA[ms]kTkT*eA*eA; antisense) [compound 1778123] | 79 % UTC | 91 % UTC | 84 % UTC | 76 % UTC | 55 % UTC | 51 % UTC | 25 % UTC | 11 % UTC | 6 % UTC | 5 % UTC | 6.49 | 37 % control | 59 % control | 49 % control | 29 % control | 54 % control | 31 % control | 77 % control | 36 % control |
| 1785604: modified oligonucleotide complementary to human APOE RNA (k[5mC]*dT[ms]dT[ms]kG*dG[ms]kT*dG[ms]dA[ms]dA*dT*d[5mC]*dT*dT*dT*dA*dT*kT*kA*dA[ms]kA; antisense) [compound 1785604] | 92 % UTC | 108 % UTC | 89 % UTC | 86 % UTC | 69 % UTC | 47 % UTC | 44 % UTC | 47 % UTC | 13 % UTC | 7 % UTC | 6.06 | 39 % control | 55 % control | 28 % control | 35 % control | 41 % control | 27 % control | 55 % control | 47 % control |
| 1778125: modified oligonucleotide complementary to human APOE RNA (eA*e[5mC]eTeTeGeG*dT*dG[ms]dA[ms]dA*dT*d[5mC]*dT*dT*dT*dA[ms]kTkT*eA*eA; antisense) [compound 1778125] | 108 % UTC | 100 % UTC | 77 % UTC | 74 % UTC | 63 % UTC | 39 % UTC | 22 % UTC | 17 % UTC | 5 % UTC | 3 % UTC | 6.49 | 40 % control | 52 % control | 59 % control | 37 % control | 75 % control | 42 % control | 81 % control | 49 % control |
| 1778120 (eA*e[5mC]eTeTeGeG*dT*dG[ms]dA[ms]dA*dT*d[5mC]*dT*dT*dT*dA[ms]kTeT*eA*eA; antisense) [Compound 1778120] | – | – | – | – | – | – | – | – | – | – | – | 47 % control | 58 % control | 57 % control | 24 % control | 75 % control | 46 % control | 78 % control | 44 % control |
| 1778126 (eA*e[5mC]eTeTkG*kG*dT*dG[ms]dA[ms]dA*dT*d[5mC]*dT*dT*dT*dA[ms]kT*eT*eA*eA; antisense) [Compound 1778126] | – | – | – | – | – | – | – | – | – | – | – | 41 % control | 72 % control | 23 % control | 20 % control | 37 % control | 22 % control | 52 % control | 35 % control |
